# Laboratory results from patent publication US8952024B2, “Herbicidal pyrimidone derivatives” (E I du Pont de Nemours and Company, priority 2009, dated 2015).
# Experiments:
# Assay type in all cases: in vivo
# [1] = system: bermudagrass (Cynodon dactylon); assay: Test B pre-/postemergence plant response
# How it was run: (§1)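 Visual ratings on a 0–100 scale (100 = complete control) were made versus untreated controls 13–15 days after treatment in a greenhouse. Compounds in surfactant-containing non-phytotoxic solvent were applied preemergence to seeds in loam–sand blend or postemergence to 1- to 4-leaf plants (2–18 cm).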
# [2] = system: wheat (Triticum aestivum); assay: Test B pre-/postemergence plant response
# How it was run: as §1
# [3] = system: cocklebur (Xanthium strumarium); assay: Test B pre-/postemergence plant response
# How it was run: as §1
# [4] = system: wheat (Triticum aestivum); assay: Test A pre-/postemergence plant response
# How it was run: (§2)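 Formulated test chemicals (non-phytotoxic solvent, surfactant) were sprayed onto soil right after planting and simultaneously onto young plants at one to two leaves, 2 to 10 cm tall. Plants stayed in the greenhouse about ten days; injury was then visually scored against untreated controls, from 0 (no effect) to 100 (complete control).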
# [5] = system: morningglory (Ipomoea spp.); assay: Test A pre-/postemergence plant response
# How it was run: as §2
# corn (Zea mays) = assay: Test A pre-/postemergence plant response
# How it was run: as §2
# [6] = system: velvetleaf (Abutilon theophrasti); assay: Test A pre-/postemergence plant response
# How it was run: as §2
# [7] = system: large crabgrass (Digitaria sanguinalis); assay: Test A pre-/postemergence plant response
# How it was run: as §2
# [8] = system: giant foxtail (Setaria faberii); assay: Test A pre-/postemergence plant response
# How it was run: as §2
# [9] = system: pigweed (Amaranthus retroflexus); assay: Test A pre-/postemergence plant response
# How it was run: as §2
# [10] = system: barnyardgrass (Echinochloa crus-galli); assay: Test A pre-/postemergence plant response
# How it was run: as §2
# [11] = 250 g ai/ha, Preemergence, 0 to 100 scale
# [12] = Postemergence, 62 g ai/ha, scale 0 (no effect) to 100 (complete control), 13 to 15 days
# [13] = Postemergence, 125 g ai/ha, visual rating after 13 to 15 days, scale 0 (no effect) to 100 (complete control)
# [14] = Postemergence, 250 g ai/ha, scale 0 to 100 (0 no effect, 100 complete control)
# [15] = Preemergence, 31 g ai/ha, scale 0 to 100 (0 no effect, 100 complete control)
# [16] = Preemergence, 62 g ai/ha, scale 0 to 100, 0 no effect, 100 complete control
# [17] = Preemergence, 125 g ai/ha, scale 0 to 100, 0 no effect, 100 complete control
# [18] = 31 g ai/ha, postemergence, scale 0 to 100, 0 is no effect, 100 is complete control
# [19] = Postemergence, 125 g ai/ha, visual injury, 0 to 100 scale (0 no effect, 100 complete control), approx. ten days
# [20] = Postemergence, 500 g ai/ha, 0 to 100 scale, 0 = no effect, 100 = complete control, approx. ten days
# [21] = Preemergence, 125 g ai/ha, 0 to 100 scale, 0 = no effect, 100 = complete control
# [22] = Preemergence, 500 g ai/ha, visual injury, 0 to 100 scale (0 no effect, 100 complete control), approx. ten days
smiles,measurement,setting,value
CCCCc1ncc(C(=O)C2=C(O)CCCC2=O)c(=O)n1-c1ccccc1C [Compound 62],"Plant response rating, Bermudagrass",[1]; [11],100
same,"Plant response rating, Bermudagrass",[1]; [12],80
same,"Plant response rating, Bermudagrass",[1]; [13],85
same,"Plant response rating, Bermudagrass",[1]; [14],90
same,"Plant response rating, Bermudagrass",[1]; [15],20
same,"Plant response rating, Bermudagrass",[1]; [16],75
same,"Plant response rating, Bermudagrass",[1]; [17],95
same,"Plant response rating, Wheat",[2]; [18],0
same,"Plant response rating, Wheat",[2]; [12],0
same,"Plant response rating, Wheat",[2]; [13],5
same,"Plant response rating, Wheat",[2]; [14],30
same,"Plant response rating, Wheat",[2]; [15],0
same,"Plant response rating, Wheat",[2]; [16],0
same,"Plant response rating, Wheat",[2]; [17],0
same,"Plant response rating, Cocklebur",[3]; [18],25
same,"Plant response rating, Cocklebur",[3]; [11],10
same,"Plant response rating, Cocklebur",[3]; [12],55
same,"Plant response rating, Cocklebur",[3]; [13],55
same,"Plant response rating, Cocklebur",[3]; [14],75
same,"Plant response rating, Cocklebur",[3]; [15],0
same,"Plant response rating, Cocklebur",[3]; [16],0
same,"Plant response rating, Cocklebur",[3]; [17],0
same,Wheat plant response rating,[4]; [19],0
same,"Plant response rating, Wheat",[4]; [20],20
same,"Plant response rating, Wheat",[4]; [21],0
same,"Plant response rating, Wheat",[4]; [22],10
same,Morningglory plant response rating,[5]; [19],100
same,"Plant response rating, Morningglory",[5]; [20],100
same,"Plant response rating, Morningglory",[5]; [21],90
same,"Plant response rating, Morningglory",[5]; [22],100
same,Corn plant response rating,corn (Zea mays); [19],30
same,"Plant response rating, Corn",corn (Zea mays); [20],70
same,"Plant response rating, Corn",corn (Zea mays); [21],0
same,"Plant response rating, Corn",corn (Zea mays); [22],20
same,Velvetleaf plant response rating,[6]; [19],100
same,"Plant response rating, Velvetleaf",[6]; [20],100
same,"Plant response rating, Velvetleaf",[6]; [21],70
same,"Plant response rating, Velvetleaf",[6]; [22],90
same,"Crabgrass, Large plant response rating",[7]; [19],70
same,"Plant response rating, Crabgrass, Large",[7]; [20],90
same,"Plant response rating, Crabgrass, Large",[7]; [21],60
same,"Plant response rating, Crabgrass, Large",[7]; [22],90
same,"Foxtail, Giant plant response rating",[8]; [19],70
same,"Plant response rating, Foxtail, Giant",[8]; [20],90
same,"Plant response rating, Foxtail, Giant",[8]; [21],60
same,"Plant response rating, Foxtail, Giant",[8]; [22],70
same,Pigweed plant response rating,[9]; [19],90
same,"Plant response rating, Pigweed",[9]; [20],100
same,"Plant response rating, Pigweed",[9]; [21],80
same,"Plant response rating, Pigweed",[9]; [22],100
same,Barnyardgrass plant response rating,[10]; [19],80
same,"Plant response rating, Barnyardgrass",[10]; [20],90
same,"Plant response rating, Barnyardgrass",[10]; [21],10
same,"Plant response rating, Barnyardgrass",[10]; [22],90
